{"source": "patent US20100304998A1", "about": "“Chemical Proteomic Assay for Optimizing Drug Binding to Target Proteins” (MARQUETTE UNIVERSITY, priority 2009, published 2010)", "key": {"[1]": {"system": "E. coli cells overexpressing DHPR", "experiment": "NHS-CRAA in-cell uptake and labeling study", "procedure": "E. coli containing the pET11a DHPR expression construct was inoculated into 30 mL LB culture medium, growing overnight at 37° C., 225 rpm. The next day, 10 mL of this culture was added to two flasks (flasks A and B, each containing 800 mL LB medium with 50 μg/mL carbenicillin). The OD600 was monitored until it reached ˜1.0. To flask A was added 0.8 mL of a 0.4 M IPTG stock to start induction^58. Flask B was used as a control without induction. 5 hours later, cells were collected (centrifuged 10 minutes at 4,000 rpm) and washed once with 100 mM PBS buffer, pH 7.4. The Cells were then suspended in 100 mL of pH 7.4 PBS buffer (8 g NaCl, 0.2 g KCl, 1.44 g Na2HPO4, 0.24 g KH2PO4 in 1.0 L) and incubated for 5 minutes. Then, 1 mL NHS-CRAA ester (2) was added to each flask and incubated at room temperature for about 30 minutes (FIG. 3a). […] The gel was fluorescently imaged on a Kodak Image Station, to selectively detect 1 which has λmax for absorbance and emission at 465 nm and 535 nm^37. Cells were fluorescently imaged in PBS buffer after the wash (before lysis) using 495 nm/520 nm excitation/emission filters on the fluorescence microscope. Complementary fluorescence and bright field images may be shifted slightly relative to each other, because of bacterial motion between image captures. […]"}, "[2]": {"biological_target": "T1, DHPR (dihydrodipicolinate reductase) (Escherichia coli, UniProt P04036)", "T1 construct": "made in house; host or cells: E. coli (pET11a DHPR expression construct)", "T1 sequence (P04036 whole entry)": "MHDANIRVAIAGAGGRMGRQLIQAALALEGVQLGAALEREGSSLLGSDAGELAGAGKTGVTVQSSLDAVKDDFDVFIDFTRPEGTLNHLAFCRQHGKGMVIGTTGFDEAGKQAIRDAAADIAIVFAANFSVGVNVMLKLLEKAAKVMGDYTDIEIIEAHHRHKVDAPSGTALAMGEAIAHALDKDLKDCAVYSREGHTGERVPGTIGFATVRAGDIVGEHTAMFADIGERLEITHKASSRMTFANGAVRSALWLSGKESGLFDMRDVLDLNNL", "experiment": "Covalent labeling of purified DHPR with NHS-CRAA, with NADH or PDC competitors (SDS-PAGE)", "type": "binding, E. coli", "experimental": "FIG. 8. SDS-PAGE gel of DHPR that has been labeled with NHS-CRAA active ester, but in the presence of increasing concentrations of either NADH or PDC (2,6-pyridine dicarboxylic acid) competitors, Lane 1, protein standard; Lanes 2-6, increasing NADH ([…]); Lanes 7-10, increasing PDC (1.1, 2.3, 4.5, 9.1 mM).\n2 (NHS-CRAA) uptake into E. coli cells and labeling of DHPR. To assess whether 1 (CRAA) can make it across bacterial cell walls, and therefore whether 1 is a viable scaffold for anti-infective drug design efforts, experiments were performed to determine if its N-hydroxysuccinimide ester, 2 (NHS-CRAA; FIG. 2), could enter E. coli and label intracellular DHPR (dihydrodipicolinate reductase). DHPR is an anti-infective drug target, and is known to bind the CRAA scaffold (1)^21. The NHS-CRAA active ester (2)^35 was synthesized as in FIG. 2. The NHS (N-hydroxysuccinimide) group reacts with amines, and since it is attached to the linker position of 1 (where the acetic acid chain is attached), it should reside at the interface of the NADH and substrate binding sites^21 (FIG. 1), near lysine 163^36 (see FIG. 7). Indeed, DHPR is labeled with the NHS-CRAA (2) active ester, based on imaging of an SDS-PAGE gel of labeled protein (FIG. 8). Increasing NADH concentration appears to decrease band intensity while PDC has little effect up to 9 mM. […] Next, to explore whether cell wall penetration occurs, uptake of 2 was measured into E. coli that was expressing E. coli DHPR. Since we have recently shown that the CRAA scaffold (1) is bifunctional, in that it is itself weakly fluorescent^33, protein labeling could be monitored by fluorescence imaging of SDS-PAGE gels of crude cell extracts. […] That there is more labeling in cells expressing DHPR is evident based on the more intense color for cells expressing DHPR (FIG. 3c) and on fluorescence images of the cells (FIG. 3d)."}, "ERG potassium channels": {"system": "ERG potassium channels", "conditions": "ERG channels expressed by neurons; cited from earlier work"}, "[3]": {"biological_target": "KCNQ1 and minK (KCNE1) potassium channel (Homo sapiens, UniProt P51787)", "sequence (P51787 whole entry)": "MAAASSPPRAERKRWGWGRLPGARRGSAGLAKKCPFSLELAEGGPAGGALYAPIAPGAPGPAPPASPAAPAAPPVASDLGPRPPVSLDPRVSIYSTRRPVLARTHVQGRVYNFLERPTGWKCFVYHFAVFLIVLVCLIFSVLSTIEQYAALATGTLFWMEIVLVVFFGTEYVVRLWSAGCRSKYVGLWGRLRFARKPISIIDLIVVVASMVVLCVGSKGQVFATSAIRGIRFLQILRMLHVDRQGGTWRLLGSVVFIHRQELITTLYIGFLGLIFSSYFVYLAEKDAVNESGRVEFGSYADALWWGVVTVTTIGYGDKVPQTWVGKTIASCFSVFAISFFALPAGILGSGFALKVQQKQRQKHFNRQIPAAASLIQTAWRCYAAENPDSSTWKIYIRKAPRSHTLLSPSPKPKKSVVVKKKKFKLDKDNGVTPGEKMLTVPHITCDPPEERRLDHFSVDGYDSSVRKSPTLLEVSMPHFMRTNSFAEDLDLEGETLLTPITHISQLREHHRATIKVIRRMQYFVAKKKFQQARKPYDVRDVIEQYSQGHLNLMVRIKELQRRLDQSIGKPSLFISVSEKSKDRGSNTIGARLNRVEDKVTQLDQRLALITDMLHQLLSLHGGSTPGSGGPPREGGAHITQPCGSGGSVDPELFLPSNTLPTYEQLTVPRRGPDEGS", "conditions": "cardiac delayed rectifier potassium channel of heart muscle cells; read-out: KD for block of the KCNQ1/minK (KCNE1) channel; cited from earlier work"}, "[4]": {"system": "potassium currents IA, IK, IAHP, IQ, IL", "conditions": "IQ and IL currents; cited from earlier work"}, "KCNQ potassium channel": {"system": "KCNQ potassium channel", "conditions": "cited from earlier work"}, "[5]": {"biological_target": "T2, malate dehydrogenase (MDH) (Sus scrofa, UniProt P00346)", "T2 construct": "malate dehydrogenase (porcine heart) were from Sigma Aldrich; purchased Sigma Aldrich; host or cells: porcine heart", "T2 sequence (P00346 25-338)": "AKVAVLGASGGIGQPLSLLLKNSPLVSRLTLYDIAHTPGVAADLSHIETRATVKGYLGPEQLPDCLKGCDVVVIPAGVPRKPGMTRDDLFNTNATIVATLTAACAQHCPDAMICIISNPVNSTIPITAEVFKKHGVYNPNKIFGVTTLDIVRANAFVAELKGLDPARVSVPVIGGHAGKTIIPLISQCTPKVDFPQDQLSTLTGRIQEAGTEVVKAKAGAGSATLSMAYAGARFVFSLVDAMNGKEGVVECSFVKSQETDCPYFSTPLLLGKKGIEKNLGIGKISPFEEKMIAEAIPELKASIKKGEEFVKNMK", "experiment": "1H NMR STD (saturation transfer difference) binding assay, MDH", "set-up": "species or system porcine", "conditions": "CRAA 3 mM", "experimental": "^1H NMR STD (saturation transfer difference) spectra for CRAA binding to either malate dehydrogenase (MDH) (FIG. 13A) or glutamate dehydrogenase (FIG. 13B) establishes that the CRAA scaffold binds proteins that were identified using the proteomic assay, thereby validing the method for identifying non-target proteins. Glutamate dehydrogenase (bovine liver, GDH) and malate dehydrogenase (porcine heart) were from Sigma Aldrich. Both experiments were performed on a 600 MHz Varian NMR system at 25° C. using the cyclonecyclnoe pulse sequence (a steady state NOE experiment) with 256 scans. On and off resonance irradiations were at 0.5 and −11 ppm respectively, performed for 4 seconds each. […] (See FIG. 13). In both cases, CRAA was present at 3 mM and the binding study was done in a 25 mM phosphate buffer at pH 7.6 with 250 ug GDH or 166 ug MDH in a total volume of 0.6 mLs. The use of STD assays in functional proteomic binding studies has been described (Yao and Sem, FEBS Lett. (2005) 579, 661-666, the content of which is incorporated herein by reference in its entirety). To verify that binding had occurred in the cofactor binding site, competition studies were also performed (not shown). […] To test this hypothesis, the competition was reversed where 3 mM NADP+ STD signal was monitored before and after adding CRAA (1 mM). […]"}, "[6]": {"biological_target": "T3, glutamate dehydrogenase (GDH) (Bos taurus, UniProt P00366)", "T3 construct": "Glutamate dehydrogenase (bovine liver, GDH); purchased Sigma Aldrich; host or cells: bovine liver", "T3 sequence (P00366 58-558)": "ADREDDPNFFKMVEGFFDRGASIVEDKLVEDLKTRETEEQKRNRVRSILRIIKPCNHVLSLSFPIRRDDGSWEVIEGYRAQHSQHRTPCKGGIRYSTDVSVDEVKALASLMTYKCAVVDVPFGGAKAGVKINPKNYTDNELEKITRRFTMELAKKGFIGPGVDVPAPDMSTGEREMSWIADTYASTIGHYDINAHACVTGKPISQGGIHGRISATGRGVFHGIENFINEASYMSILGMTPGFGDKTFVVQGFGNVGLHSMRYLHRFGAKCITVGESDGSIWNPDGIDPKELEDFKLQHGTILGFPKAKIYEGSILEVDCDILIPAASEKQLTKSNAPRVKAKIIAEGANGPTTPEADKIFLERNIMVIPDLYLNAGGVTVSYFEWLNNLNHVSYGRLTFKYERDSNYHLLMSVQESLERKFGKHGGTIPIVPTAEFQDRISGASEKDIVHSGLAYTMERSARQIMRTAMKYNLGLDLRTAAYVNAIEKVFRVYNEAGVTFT", "experiment": "1H NMR STD (saturation transfer difference) binding assay, GDH", "set-up": "species or system bovine", "experimental": "^1H NMR STD (saturation transfer difference) spectra for CRAA binding to either malate dehydrogenase (MDH) (FIG. 13A) or glutamate dehydrogenase (FIG. 13B) establishes that the CRAA scaffold binds proteins that were identified using the proteomic assay, thereby validing the method for identifying non-target proteins. Glutamate dehydrogenase (bovine liver, GDH) and malate dehydrogenase (porcine heart) were from Sigma Aldrich. Both experiments were performed on a 600 MHz Varian NMR system at 25° C. using the cyclonecyclnoe pulse sequence (a steady state NOE experiment) with 256 scans. On and off resonance irradiations were at 0.5 and −11 ppm respectively, performed for 4 seconds each. […] (See FIG. 13). In both cases, CRAA was present at 3 mM and the binding study was done in a 25 mM phosphate buffer at pH 7.6 with 250 ug GDH or 166 ug MDH in a total volume of 0.6 mLs. The use of STD assays in functional proteomic binding studies has been described (Yao and Sem, FEBS Lett. (2005) 579, 661-666, the content of which is incorporated herein by reference in its entirety). To verify that binding had occurred in the cofactor binding site, competition studies were also performed (not shown). Addition of 1 mM NADH to the MDH sample caused a decrease in STD signal for CRAA (3 mM) of 35%. The analogous competition with GDH (using NADP+ as competitor) produced no change in STD signal for CRAA—which might be due to higher affinity for […]. To test this hypothesis, the competition was reversed where 3 mM NADP+ STD signal was monitored before and after adding CRAA (1 mM). A decrease in the NADP+ STD signal of 50% was now observed, due to CRAA addition."}, "human liver proteome": {"system": "human liver proteome", "experiment": "CRAA affinity column target fishing with nanospray-LC/MS/MS, human liver proteome", "type": "binding", "conditions": "elution with free CRAA"}}, "data": [{"smiles": "O=C(CN1C(=O)C(=Cc2ccc(O)c(O)c2)SC1=S)ON1C(=O)CCC1=O", "note": "[NHS-CRAA, 5-[(3,4-dihydroxyphenyl)methylene]-4-oxo-2-thioxo-3-thiazolidineacetic N-hydroxysuccinimide ester]", "values": [{"measurement": "crossing of the bacterial cell wall", "setting": "[1]; intact E. coli cells overexpressing DHPR", "result": "can cross the cell wall"}, {"measurement": "labeling of DHPR within intact E. coli cells", "setting": "[1]; intact cells overexpressing DHPR, about 30 minutes, room temperature, fluorescence imaging of SDS-PAGE gel", "result": "significant labeling"}, {"measurement": "effect of PDC on labeling of DHPR", "setting": "[2]; PDC up to 9 mM", "result": "little effect"}, {"measurement": "covalent labeling of purified DHPR", "setting": "[2]; imaging of SDS-PAGE gel", "result": "labeled"}, {"measurement": "effect of NADH on labeling of DHPR", "setting": "[2]; increasing NADH concentration", "result": "partially blocked"}]}, {"smiles": "O=C1c2ccccc2C(Cc2ccncc2)(Cc2ccncc2)c2ccccc21", "note": "[XE991]", "values": [{"measurement": "effect on ERG potassium channels", "setting": "ERG potassium channels", "result": "binds to and blocks the activity"}, {"measurement": "Kd", "setting": "[3]", "result": "11.1 ± 1.8", "unit": "µM"}]}, {"smiles": "O=C1N(c2ccccc2)c2ccccc2C1(Cc1ccncc1)Cc1ccncc1", "note": "[linopirdine]", "values": [{"measurement": "concentration at which several other potassium currents are blocked", "setting": "[4]", "result": "above 10 μM"}]}, {"smiles": "O=C1c2ccccc2C(Cc2ccnc(F)c2)(Cc2ccnc(F)c2)c2ccccc21", "note": "[DMP543, 10, 10-Bis[(2-fluoro-4-pyridinyl)methyl]-9(10H)-anthracenone]", "values": [{"measurement": "effect on the KCNQ potassium channel", "setting": "KCNQ potassium channel", "result": "activate"}]}, {"smiles": "O=C(O)CN1C(=O)C(=Cc2ccc(O)c(O)c2)SC1=S", "note": "[CRAA, 5-[(3,4-dihydroxyphenyl)methylene]-4-oxo-2-thioxo-3-thiazolidineacetic acid]", "values": [{"measurement": "binding to malate dehydrogenase by STD difference spectrum", "setting": "[5]; 166 ug MDH, 25 mM phosphate pH 7.6, 25° C.", "result": "binds to protein"}, {"measurement": "decrease in STD signal for CRAA on addition of NADH", "setting": "[5]; 1 mM NADH competitor, MDH", "result": 35, "unit": "%"}, {"measurement": "binding to glutamate dehydrogenase by STD difference spectrum", "setting": "[6]; CRAA 3 mM, 250 ug GDH, 25 mM phosphate pH 7.6, 25° C.", "result": "binds to protein"}, {"measurement": "decrease in the NADP+ STD signal due to CRAA addition", "setting": "[6]; GDH, 3 mM NADP+, CRAA 1 mM", "result": 50, "unit": "%"}, {"measurement": "change in STD signal for CRAA with NADP+ as competitor", "setting": "[6]; GDH, NADP+ competitor", "result": "no change"}, {"measurement": "share of captured proteins that are NAD(P)(H)-binding proteins", "setting": "human liver proteome", "result": "> 50", "unit": "%"}]}]}
